Test results published in patent US20080261933A1, “COMBINATION OF PROGESTERONE-RECEPTOR ANTAGONIST TOGETHER WITH A LUTEIN-HORMONE-RELEASING HORMONE AGONIST AND ANTAGONIST FOR USE IN BRCA MEDIATED DISEASES” (priority 2007, published 2008).

Columns and labels:
progesterone receptor [1] = biological target: T1, progesterone receptor (Homo sapiens, UniProt P06401); experiment: Endocrinological profile of the progesterone-receptor antagonist
T1 sequence (P06401 1-933): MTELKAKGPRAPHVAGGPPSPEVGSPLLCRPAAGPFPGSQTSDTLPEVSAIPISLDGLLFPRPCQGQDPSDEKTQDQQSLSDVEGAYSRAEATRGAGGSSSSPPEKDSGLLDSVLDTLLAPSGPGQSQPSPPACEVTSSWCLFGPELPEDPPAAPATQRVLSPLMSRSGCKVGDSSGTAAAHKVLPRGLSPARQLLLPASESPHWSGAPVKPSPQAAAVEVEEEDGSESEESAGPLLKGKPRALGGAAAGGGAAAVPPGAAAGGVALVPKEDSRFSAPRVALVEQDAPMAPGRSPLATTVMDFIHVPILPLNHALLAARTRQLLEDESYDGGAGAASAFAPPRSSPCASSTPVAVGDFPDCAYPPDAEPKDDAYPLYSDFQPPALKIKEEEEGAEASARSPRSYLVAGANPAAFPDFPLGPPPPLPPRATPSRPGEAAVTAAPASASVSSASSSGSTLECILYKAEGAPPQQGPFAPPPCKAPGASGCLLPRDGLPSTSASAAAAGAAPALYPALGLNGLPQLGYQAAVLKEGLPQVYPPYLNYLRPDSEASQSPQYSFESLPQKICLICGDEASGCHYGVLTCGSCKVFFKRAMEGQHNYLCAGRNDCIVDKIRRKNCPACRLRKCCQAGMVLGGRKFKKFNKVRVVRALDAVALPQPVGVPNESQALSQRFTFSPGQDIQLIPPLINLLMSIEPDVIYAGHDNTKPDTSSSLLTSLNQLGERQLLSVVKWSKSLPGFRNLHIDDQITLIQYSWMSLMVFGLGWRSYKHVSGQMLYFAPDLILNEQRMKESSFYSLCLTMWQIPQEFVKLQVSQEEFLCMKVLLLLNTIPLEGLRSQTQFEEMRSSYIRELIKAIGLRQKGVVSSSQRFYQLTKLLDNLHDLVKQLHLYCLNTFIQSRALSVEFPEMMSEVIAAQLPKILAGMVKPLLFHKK
From the text: has high antiprogestagenic activity with little or no other endocrinological effects (Fuhrmann, U. et al., J. Med. Chem. 2000, 43, 5010-5016).

progesterone receptor [2] = biological target: T1, progesterone receptor; conditions: Fuhrmann et al., J. Med. Chem. 2000; cited from earlier work
tumor cells = experiment: Apoptosis of tumor cells
From the text: Such other hormone-dependent diseases may include ovarian cancer, endometrial cancer, myeloma, myoma, lung cancer, meningioma, i.e., diseases which substantially originate or are influenced by the presence of hormone receptors and/or hormone-dependent pathways.

glucocorticoid = conditions: causes severe side effects; cited from earlier work
[3] = oral; cited from earlier work
[4] = test system: mammary tumors in Brca1/p53-deficient mice; conditions: mice with BRCA1- or BRCA2 inactivated in mammary glands; cited from earlier work

SMILES	endocrine side effects such as androgen, estrogen or antiglucocorticoid activity (progesterone receptor [1])	antiprogestagenic activity (progesterone receptor [2])	other endocrinological effects (progesterone receptor [2])	apoptosis of tumor cells (tumor cells)	anti-glucocorticoid activity (glucocorticoid)	bioavailability when administered orally [3]	development of mammary tumors [4]
CC(=O)c1ccc([C@H]2C[C@@]3(C)[C@@H](CC[C@@]3(O)C(F)(F)C(F)(F)F)[C@@H]3CCC4=CC(=O)CCC4=C32)cc1 [ZK230211, 11β-(4-acetylphenyl)-17β-hydroxy-17α-(1,1,2,2,2-pentafluoroethyl)-estra-4,9-dien-3-one]	only very weak or no	high	little or no	increased apoptosis			
CC#C[C@]1(O)CC[C@H]2[C@@H]3CCC4=CC(=O)CCC4=C3[C@@H](c3ccc(N(C)C)cc3)C[C@@]21C [mifepristone]					strong	poor	blocks the development of mammary tumors
